The text below walks through data of patent US11643428B2, “Therapeutic drug for neurodegenerative disease and application thereof” (SHANGHAI PHARMACEUTICALS HOLDING CO., LTD., priority 2018, dated 2023).

The test system of test [1] is Human neural stem cells. Kind of test: Neural stem cell proliferation under Aβ by EdU incorporation. Format: cell-based. To be noted: Aβ 5 μM pre-treatment 30 minutes, PL201 30 μM, 72 hours. The method, then: As the main pathogenic protein of AD, Aβ inhibits neural stem cell proliferation. In this example, the inventors detected the levels of human neural stem cell proliferation by EdU incorporation, and tested whether PL201 can alleviate the inhibition effect of Aβ on the proliferation of neural stem cells.
Human neural stem cells (3 L) were cultured in DMEM/F12 (containing N2/B27 and 10 ng/ml bFGF), plated to 96 well plates and incubated for 24 hours, then Aβ (5 μM) was added to pre-treat the cells for 30 minutes, and then PL201 (30 μM) was added. After co-incubation for 72 hours, the proliferation level of neural stem cells was detected by EdU staining.

The subject of test [2] is APP/PS1 transgenic mice (AD mice). The experiment in a line: Morris water maze test. Format: in vivo, mouse. To be noted: 10 mg/kg intragastrically daily, 90 days, vs model group. The method, then:
Twenty 5-6 months aged, male APP/PS1 transgenic mice (AD mice) were selected, and were divided into a model group and a polysaccharide administration group randomly by random number table method. PL201 was intragastrically administered daily (10 mg/kg mouse body weight), meanwhile, 10 non-transgenic mice were used as a negative control group (without PL201 administration). After 90 days of consecutive administration, Morris water maze behavior test was used to detect the effects of PL201 on learning and cognitive function of APP/PS1 mice.
Classic Morris water maze test procedure was used in the test, which includes two parts: i.e., the place navigation task and the spatial probe task. The test lasted for 7 days, and the spatial probe task was added at Day 4 and Day 7.
It can be seen from the test results in FIG. 1 that the escape latency of all the three groups of animals after 3 days of training was shortened in the place navigation task, illustrating that mice in each group can successfully complete the spatial learning task of the water maze. The escape latency was used as a test indicator.

Test [3] concerns neuroblastoma cells SK-N-SH. Kind of test: Total Aβ in supernatant of SK-N-SH cells by ELISA. Type of test: cell-based. To be noted: 30, 100, 300 μM, 24 hours. The method, then: Culture of neuroblastoma cells SK-N-SH and Aβ detection: SK-N-SH cells were cultured in DMEM, plated to 24 well plates and cultured for 24 hours, then PL201 (0, 30, 100, and 300 μM) was added. After co-incubation for 24 hours, the protein level of total Aβ in supernatant was detected by ELISA.
Culture of neuroblastoma cells SK-N-SH and Aβ detection: SK-N-SH cells were cultured in DMEM, plated to 24 well plates and cultured for 24 hours, then PL202 (0, 30, and 100 μM) was added. After co-incubation for 24 hours, protein level of total Aβ in supernatant was detected by ELISA.
Culture of neuroblastoma cells SK-N-SH and Aβ detection: SK-N-SH cells were cultured in DMEM, plated to 24 well plates and cultured for 24 hours, then PL171 (300 μM) was added. After co-incubation for 24 hours, protein level of total Aβ in supernatant was detected by ELISA.
Culture of neuroblastoma cells SK-N-SH and Aβ detection: SK-N-SH cells were cultured in DMEM, plated to 24 well plates and cultured for 24 hours, then PL172 (300 μM) was added. After co-incubation for 24 hours, protein level of total Aβ in supernatant was detected by ELISA.

Another test has as its system MPTP mice model. The experiment in a line: TH immunohistochemistry of substantia nigra and striatum, MPTP model. To be noted: PL201+MPTP vs NS+MPTP group, Day 7 after MPTP modeling. Format: in vivo, mouse. The method, then:
The mice were randomly divided into 4 groups: a group in which the mice was administrated with normal saline (NS), a MPTP model group in which the mice was intragastrical administrated with normal saline (NS+MPTP), a group in which the mice was intragastrical administrated with 50 mg of compound PL201 (PL201), and a MPTP model group in which the mice was intragastrical administrated with compound PL201 (PL201+MPTP).
11 animals were set in the group in which the mice was administrated with normal saline (NS), 14 animals were set in the MPTP model group in which the mice was intragastrical administrated with normal saline (NS+MPTP), 4 animals were set in the group in which the mice was intragastrically administrated with 50 mg of compound PL201 (PL201), 15 animals were set in the MPTP model group in which the mice was intragastrically administrated with the compound PL201 (PL201+MPTP).
The administration started on the day of animal grouping: mice in the NS and the NS+MPTP group were intragastrically administrated with normal saline, and mice in the other two groups were administrated with compound PL201 once a day for 7 consecutive days. From Day 7, mice in the NS and the PL201 group were intraperitoneally injected with 5 ml/kg normal saline, while mice in the NS+MPTP and the PL201+MPTP group were intraperitoneally injected with 25 mg/kg of MPTP once a day for a total of 5 days. […]

The test system of test [4] is Human neural stem cells. Kind of test: Mitochondrial membrane potential, JC-1 staining. Type of test: cell-based. To be noted: Aβ-treated cells. How it is done:
Mitochondrial membrane potential is the main parameter of mitochondrial function, and mitochondrial dysfunction is a prominent feature of AD brain. In this example, the inventors have explored whether PL201 has the effect of improving mitochondrial function by detecting the level of cell mitochondrial membrane potential of human neural stem cells.
Mitochondria was stained with JC-1 for 20 minutes and washed with washing buffer, then immunofluorescence analysis was performed.

Regarding `COc1cc(/C=C/C(=O)OC2OC(C)C(O)C(O)C2O)ccc1O` [PL201, (α-L-rhamnopyranosyl) ferulic acid ester], the “proliferation level of neural stem cells (EdU staining)” value in the test with Human neural stem cells [1] is “significantly alleviate the inhibitory effect of Aβ”. In addition, the “learning and memory abilities (escape latency)” value in test [2] is given as “significantly improved”. In addition, the “Aβ production (total Aβ in supernatant)” value in test [3] is listed as “significantly inhibited”. Moreover, in the test with MPTP mice model, the “level of striatal dopaminergic nerve fibers (TH immunohistochemistry, mean optical density)” value is “significantly increased” and the “number of dopaminergic neurons in substantia nigra (TH positive cells)” value is recorded as “significantly increased”. Besides, the mitochondrial membrane potential entry in the test on Human neural stem cells [4] is recorded as “mitigated the deleterious effect of Aβ to a lesser extent”.
